From paper PMC6736568, “Discovery of Novel Anti-cryptosporidial Activities From Natural Products by in vitro High-Throughput Phenotypic Screening” (Frontiers in Microbiology, 2019)
Counter-ions that a name gives are not always drawn. Like-named read-outs stand apart in the source and are kept apart here.

Columns and labels:
Cryptosporidium parvum = test: qRT-PCR assay of the growth of C. parvum in vitro in HCT-8 host cells (primary and secondary screening, EC50); assay type: cell-based; conditions: Cryptosporidium parvum; for inhibition at 10 µM / inhibition at 3.3 µM: HCT-8; for inhibition at 3.3 µM: secondary screening at 3.3 uM, read-out: % Inhibition (3.3 uM); for EC50: growth of C. parvum in vitro, HCT-8 host cells, 44 h infection
HCT-8 cells = test: In vitro cytotoxicity MTS assay on host cells; assay type: cell-based, human; conditions: 41 h
Procedure: The plates were measured for absorbance at 490 nm in 15 min intervals in a SmartReader 96 microplate reader (Accuris, Edison, NJ, United States). Cytotoxicity of a compound was quantified by calculating the half maximal toxic concentration on host cells (TC50). An in vitro safety interval (SI) was calculated by determining the ratio between TC50 and EC50 values (i.e., SI = TC50/EC50).

[1] = primary screening at 10 uM, read-out: Inhibition (%)
[2] = primary screening at 10 uM, treated vs control

Compound	Hs18S ΔCT (HCT-8 host cells (Hs18S); human, 41 h, 10 μM)	cytotoxicity at 41 h, 10 µM (in vitro; human) [%]	inhibition at 10 µM (Cryptosporidium parvum; [1]) [%]	cytotoxicity at 10 µM (in vitro) [%]	Hs18S ΔCT (HCT-8 host cells (Hs18S); [2])	also measured
O=c1cc(-c2ccccc2)oc2cc(O)c(O)c(O)c12 [Baicalein]	0.10	6.7	81.3			inhibition at 3.3 µM (Cryptosporidium parvum): 66%; EC50 (Cryptosporidium parvum): 981 nM; TC50 (HCT-8 cells; human): >100 µM
C=C1C(N)CC2CC1C2(C)C (stereo not drawn) [3-AMINO-beta-PINENE]	0.42	25.3	19.2			
O=C(O)c1cc(O)c2cccc(O)c2n1 [X[…]]				-24.4	-0.32	inhibition at 10 µM (Cryptosporidium parvum): 20.3%
NC[C@H]1O[C@H](O[C@H]2[C@H](O)[C@@H](O[C@H]3O[C@H](CO)[C@@H](O)[C@H](N)[C@H]3O)[C@H](N)C[C@@H]2N)[C@H](N)[C@@H](O)[C@@H]1O [BEKANAMYCIN SULFATE]	0.13	8.7	4.16			
COc1ccc(C(=O)/C=C/c2ccccc2)cc1 [4'-METHOXYCHALCONE]		-12	20		-0.16	
O=c1c(O)c(-c2ccccc2)oc2cc(O)cc(O)c12 [GALANGIN]			-14.9	23.6	0.39	
COc1cc2c(cc1OC)[C@H](C)NCC2 [SALSOLIDINE]			47.1		0.32	cytotoxicity at 41 h, 10 µM (in vitro): 20%
C#CCCCCCCCCCCCC(O)CC(O)COC(C)=O (stereo not shown) [AVOCADYNE ACETATE]	0.19	12.2	15.8			
CC(=O)O[C@@H]1C[C@@]23C[C@@]24CC[C@H](O[C@@H]2OC[C@@H](O)[C@H](O)[C@H]2O)C(C)(C)[C@@H]4CC[C@H]3[C@]2(C)C[C@@H]3O[C@]4(C[C@@H](C)[C@@H]3[C@@]12C)O[C@H](O)[C@@]1(C)O[C@@H]41 [ACTEIN]			3.9		-0.41	cytotoxicity at 41 h, 10 µM (in vitro): -33.3%
O=C(O)[C@H]1O[C@@H](Oc2cc3oc(-c4ccccc4)cc(=O)c3c(O)c2O)[C@H](O)[C@@H](O)[C@@H]1O [BAICALIN]		-17.1	-13		-0.23	
O=C(/C=C/C=C/c1ccc2c(c1)OCO2)N1CCCCC1 [PIPERINE]			-12.1	2.1	0.03	
OCc1ccccc1O[C@@H]1O[C@H](CO)[C@@H](O)[C@H](O)[C@H]1O [SALICIN]	0.58	32.9	37.1			
CN1[C@@H]2CC[C@H]1C[C@@H](OC(=O)[C@H](CO)c1ccccc1)C2 [HYOSCYAMINE]			36.2	-8.9	-0.12	
O=C(O)c1cccnc1 [NIACIN]	0.08	5.3	-6.7			
COc1cc2c(cc1OC)[C@@H]1C(=O)c3ccc(OC)c(CC=C(C)C)c3O[C@@H]1CO2 [ROTENONIC ACID, METHYL ETHER]			11.8	18.7	0.30	
COc1cc(/C=C/C(=O)O)cc(OC)c1OC [SINAPIC ACID METHYL ETHER]			-20.8	36.6	0.66	
COc1cc(O)c2c(=O)cc(-c3ccc(O)cc3)oc2c1 [GENKWANIN]			-9.13	-77.7	-0.83	

Compound	Hs18S ΔCT (HCT-8 host cells (Hs18S); human, 41 h, 10 μM)	cytotoxicity at 41 h, 10 µM (in vitro; human) [%]	inhibition at 10 µM (Cryptosporidium parvum; [1]) [%]	cytotoxicity at 10 µM (in vitro) [%]	Hs18S ΔCT (HCT-8 host cells (Hs18S); [2])	also measured
C=C[C@H]1CN2CC[C@H]1C[C@H]2[C@H](O)c1ccnc2ccccc12 [CINCHONIDINE]			3.76		-0.20	cytotoxicity at 41 h, 10 µM (in vitro): -15.2%
CC(C)=CCC[C@@H](C)[C@H]1CC[C@@]2(C)C3=C(CC[C@]12C)[C@@]1(C)CC[C@H](O)C(C)(C)[C@@H]1CC3 [LANOSTEROL]	-0.24	-18.1	-22.5			
C[C@H]1[C@H](C)CC[C@]2(C(=O)O)CC[C@]3(C)C(=CC[C@@H]4[C@@]5(C)C[C@@H](O)[C@H](O)[C@@](C)(CO)[C@@H]5[C@H](O)C[C@]43C)[C@H]12 [MADECASSIC ACID]			-20.3	-11.7	-0.16	
C[C@@H]1CC[C@@]2(NC1)O[C@H]1C[C@H]3[C@@H]4CC=C5C[C@@H](O)CC[C@]5(C)[C@H]4CC[C@]3(C)[C@H]1[C@@H]2C [SOLASODINE]			-28.3	4.6	0.07	
NCCc1ccc(O)cc1 [TYRAMINE]	-0.27		-27.4	-20.9		
CN[C@@H]1[C@H](O[C@H]2[C@H](O[C@H]3[C@H](O)[C@@H](O)[C@H](NC(=N)N)[C@@H](O)[C@@H]3NC(=N)N)O[C@@H](C)[C@]2(O)CO)O[C@@H](CO)[C@H](O)[C@H]1O [DIHYDROSTREPTOMYCIN SULFATE]		3.4	18		0.05	
NC(=O)c1cccnc1 [NIACINAMIDE]	-0.05	-3.6	-9.59			
O=C(Oc1cc(O)cc2c1C[C@@H](OC(=O)c1cc(O)c(O)c(O)c1)[C@@H](c1cc(O)c(O)c(O)c1)O2)c1cc(O)c(O)c(O)c1 [EPIGALLOCATECHIN 3,5-DIGALLATE]			-1.19	-17.5	-0.23	
COc1ccc(-c2cc(=O)c3ccccc3o2)cc1 [4'-METHOXYFLAVONE]		-6.3	44.4		-0.09	
Cc1c(O)c(O)cc2c1CC=C1[C@@]2(C)CC[C@@]2(C)[C@@H]3C[C@](C)(C(=O)O)CC[C@]3(C)CC[C@]12C [DIHYDROCELASTROL]			92.5	58.7	1.27	inhibition at 3.3 µM (Cryptosporidium parvum): -66%
c1cncc([C@@H]2CCCCN2)c1 [ANABASINE HYDROCHLORIDE]			6.88	-5.5	-0.08	
O=C(O)CCCC[C@@H]1SC[C@@H]2NC(=O)N[C@@H]21 [BIOTIN]			11.9	-18.4	-0.24	
COc1cc(C(=O)O)cc(OC)c1O [SYRINGIC ACID]			3.63	-20	-0.26	
O=C(O)CCCCCCCC(=O)O [AZELAIC ACID]	0.03	1.8	6.72			
COc1ccc2c(c1)OC[C@@H](Cc1ccc(OC)c(OC)c1)[C@H]2O			9.9	-6.9	-0.10	
CNC[C@H](O)c1ccc(O)c(O)c1 [EPINEPHRINE BITARTRATE]				2.6		inhibition at 10 µM (Cryptosporidium parvum): -27.1%; Hs18S ΔCT (HCT-8 host cells (Hs18S)): 0.04

Second part, led by results:

Hs18S ΔCT (HCT-8 host cells (Hs18S); human, 41 h, 10 μM)	Compound	cytotoxicity at 41 h, 10 µM (in vitro; human) [%]	inhibition at 10 µM (Cryptosporidium parvum; [1]) [%]	cytotoxicity at 10 µM (in vitro) [%]	Hs18S ΔCT (HCT-8 host cells (Hs18S); [2])	also measured
-0.49	COC(=O)C[C@H]1C(C)(C)[C@@H](O)[C@@H]2CC3=C4C=C(OC)O[C@@H](c5ccoc5)[C@]4(C)CCC3[C@@]1(C)C2=O (stereo partly drawn) [3-Deoxo-3beta-hydroxy-mexicanolide 16-enol ether]	-40.1	90			inhibition at 3.3 µM (Cryptosporidium parvum): 71%; EC50 (Cryptosporidium parvum): 3940 nM; TC50 (HCT-8 cells; HCT-8 cells, MTS): >100 µM
0.09	C=CC(C1=CC(=O)C(OC)=CC1=O)c1ccc(O)cc1 (stereo not shown) [DALBERGIONE, 4-METHOXY-4'-HYDROXY-]	6.1	30.3			
-0.03	Cc1ccc2c(c1)CC[C@H]1CC(=O)CC[C@]21C [13-METHYL-4,4-BISNOR-8,11,13-PODOCARPATRIEN-3-ONE]	-2	-31.4			
-0.20	COc1ccc([C@H]2COc3c(ccc(O)c3OC)C2)c(OC)c1O [DUARTIN (-)]	-15.3	-26.9			
0.02	Cc1cc2nc3c(=O)[nH]c(=O)nc-3n(C[C@H](O)[C@H](O)[C@H](O)CO)c2cc1C [RIBOFLAVIN]	1.1	-26.6			
0.22	CCOc1ccc(C(=O)c2ccc(O)c(O)c2O)cc1 [2,3,4-TRIHYDROXY-4'-ETHOXYBENZOPHENONE]	14.4	-43.7			
-0.30	COc1cc(C/C=C/c2ccccc2)c(OC)cc1O [VIOLASTYRENE]	-23.3	-23.6			
0.08	COc1cc(C)c2c(c1C=O)Oc1c(c(C)c(O)c3c1C(O)OC3=O)OC2=O (stereo not shown) [STICTIC ACID]	5.5	-0.45			
0.08	COC(=O)C[C@H]1C(C)(C)[C@@H](OC(C)=O)[C@@H]2CC3C4CC(=O)O[C@@H](c5ccoc5)[C@]4(C)CCC3[C@@]1(C)C2=O (stereo partly shown) [DIHYDROFISSINOLIDE]	5.3	4.5			
-0.01	C=CC(C1=CC(=O)C(OC)=CC1=O)c1ccc(OC)cc1 (stereo not shown) [4,4'-DIMETHOXYDALBERGIONE]	-0.7	-34.2			
-0.34	COc1ccc2c(=O)ccoc2c1 [7-METHOXYCHROMONE]	-26.1	-17.1			
0.16	COc1ccc(C(=O)O)c(O)c1OC [2-HYDROXY-3,4-DIMETHOXYBENZOIC ACID]	10.5	7.69			
0.09	O=C(/C=C/c1ccccc1)c1ccc(O)cc1O [2',4'-DIHYDROXYCHALCONE]	6.1	6.05			
